We go through 25 molecules from ChEMBL document CHEMBL1201862, “PubChem BioAssay data set” (2004).

The nature of data set [1]: NIH-3T3 fibroblast cytotoxicity, dose response, cytotoxicity control, cell-based, fluorescence, Alamar Blue, secondary assay (AID 2327).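 Further: NIH-3T3 mouse fibroblasts cultured with fluconazole at 8 µg/mL.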 It counts as functional. On the technique in general: Resazurin is reduced to fluorescent resorufin, in cell work by metabolically active cells.
Data set [2] can be described thus: cells. In kind it is functional, cell-based.
The nature of data set [3]: fluconazole-exposed Candida albicans growth modulators – fluorescence, retest, confirmation (AID 2467). It counts as functional, cell-based.
Data set [4] in a line: cells. In kind it is functional, cell-based. This is another data set of the same source.
The next data set concerns the target Nonstructural protein 1 (Influenza A virus, UniProt Q194T2). It counts as functional, Influenza A virus (A/California/07/2009(H1N1)).
The target of data set [5] is T1, RNA-binding protein pos-1 (Caenorhabditis elegans, UniProt G5EF15).
T1 sequence (G5EF15 whole entry): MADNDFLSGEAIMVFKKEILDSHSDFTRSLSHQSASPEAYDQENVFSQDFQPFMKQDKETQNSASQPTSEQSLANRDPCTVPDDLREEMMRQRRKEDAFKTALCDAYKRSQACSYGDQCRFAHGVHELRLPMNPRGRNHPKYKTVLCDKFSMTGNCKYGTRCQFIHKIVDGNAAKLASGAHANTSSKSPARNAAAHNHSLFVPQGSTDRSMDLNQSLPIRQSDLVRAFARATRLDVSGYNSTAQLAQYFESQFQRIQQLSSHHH
Kind of data set: disruptors of C. elegans POS-1 RNA interaction – biochemical, fluorescence polarization, dose response (AID 1964).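 Further: purified POS-1 fused to maltose binding protein made in E. coli; potency of compounds blocking POS-1 binding to fluorescent RNA.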

In data set [6] the target is T2, Zinc finger protein mex-5 (Caenorhabditis elegans, UniProt Q9XUB2).
T2 sequence (Q9XUB2 whole entry): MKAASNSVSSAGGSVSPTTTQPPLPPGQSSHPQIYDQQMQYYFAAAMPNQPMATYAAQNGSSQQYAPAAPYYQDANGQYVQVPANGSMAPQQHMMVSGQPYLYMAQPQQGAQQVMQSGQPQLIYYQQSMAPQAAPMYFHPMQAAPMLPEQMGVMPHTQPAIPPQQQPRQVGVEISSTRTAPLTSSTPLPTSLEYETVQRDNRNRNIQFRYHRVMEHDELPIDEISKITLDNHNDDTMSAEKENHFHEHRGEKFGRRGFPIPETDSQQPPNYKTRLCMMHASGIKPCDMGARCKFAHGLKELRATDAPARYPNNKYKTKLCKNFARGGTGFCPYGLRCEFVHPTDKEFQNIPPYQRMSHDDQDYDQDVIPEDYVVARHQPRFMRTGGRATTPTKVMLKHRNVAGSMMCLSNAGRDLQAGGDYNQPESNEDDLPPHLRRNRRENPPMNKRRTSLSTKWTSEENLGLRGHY
Kind of data set: potency of MEX-5 RNA-binding blockers – biochemical, C. elegans, fluorescence polarization, dose response (AID 1960).

The nature of data set [7]: cells. It counts as functional.
A short description of data set [8]: reduction of Shn3 3'UTR-driven luciferase in osteoblasts – cell-based, Clone20 osteoblasts, firefly luciferase, cherry-picked, dose response (AID 624132).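 Further: firefly luciferase luminescence from reporter carrying the Shn3 3'UTR in osteoblasts.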 In kind it is functional.
In data set [9] the target is T3, Rac GTPase-activating protein 1 (Homo sapiens, UniProt Q9H0H5).
T3 sequence (Q9H0H5 whole entry): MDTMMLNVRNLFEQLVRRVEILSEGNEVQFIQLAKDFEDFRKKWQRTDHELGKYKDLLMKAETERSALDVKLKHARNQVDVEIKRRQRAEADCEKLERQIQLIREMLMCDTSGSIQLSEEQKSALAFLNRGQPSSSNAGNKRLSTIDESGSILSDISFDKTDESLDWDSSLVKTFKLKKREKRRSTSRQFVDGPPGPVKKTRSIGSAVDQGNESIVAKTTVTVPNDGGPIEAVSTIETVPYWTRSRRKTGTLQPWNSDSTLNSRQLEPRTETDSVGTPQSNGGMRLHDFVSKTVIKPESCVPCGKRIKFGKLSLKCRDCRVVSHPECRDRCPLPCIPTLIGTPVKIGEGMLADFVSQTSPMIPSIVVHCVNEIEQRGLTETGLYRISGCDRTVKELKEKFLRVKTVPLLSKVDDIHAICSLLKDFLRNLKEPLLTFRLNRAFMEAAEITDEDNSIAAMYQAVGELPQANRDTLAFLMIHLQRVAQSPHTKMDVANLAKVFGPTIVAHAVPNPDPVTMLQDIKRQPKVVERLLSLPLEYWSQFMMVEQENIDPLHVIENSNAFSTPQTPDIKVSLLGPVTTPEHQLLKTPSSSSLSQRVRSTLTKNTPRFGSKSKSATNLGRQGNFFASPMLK
Kind of data set: blockers of MgcRacGAP-driven Rac1 GTP hydrolysis – biochemical, ADP Hunter fluorescence, primary and confirmatory, confirmation (AID 624330). In kind it is functional.

For another data set, the target named is Large T antigen (Simian virus 40, UniProt P03070). It counts as functional, Betapolyomavirus macacae.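 Further: Confirmatory-stage PubChem screen for compounds that inhibit SV40 T antigen.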
Sequence of Large T antigen (P03070 whole entry): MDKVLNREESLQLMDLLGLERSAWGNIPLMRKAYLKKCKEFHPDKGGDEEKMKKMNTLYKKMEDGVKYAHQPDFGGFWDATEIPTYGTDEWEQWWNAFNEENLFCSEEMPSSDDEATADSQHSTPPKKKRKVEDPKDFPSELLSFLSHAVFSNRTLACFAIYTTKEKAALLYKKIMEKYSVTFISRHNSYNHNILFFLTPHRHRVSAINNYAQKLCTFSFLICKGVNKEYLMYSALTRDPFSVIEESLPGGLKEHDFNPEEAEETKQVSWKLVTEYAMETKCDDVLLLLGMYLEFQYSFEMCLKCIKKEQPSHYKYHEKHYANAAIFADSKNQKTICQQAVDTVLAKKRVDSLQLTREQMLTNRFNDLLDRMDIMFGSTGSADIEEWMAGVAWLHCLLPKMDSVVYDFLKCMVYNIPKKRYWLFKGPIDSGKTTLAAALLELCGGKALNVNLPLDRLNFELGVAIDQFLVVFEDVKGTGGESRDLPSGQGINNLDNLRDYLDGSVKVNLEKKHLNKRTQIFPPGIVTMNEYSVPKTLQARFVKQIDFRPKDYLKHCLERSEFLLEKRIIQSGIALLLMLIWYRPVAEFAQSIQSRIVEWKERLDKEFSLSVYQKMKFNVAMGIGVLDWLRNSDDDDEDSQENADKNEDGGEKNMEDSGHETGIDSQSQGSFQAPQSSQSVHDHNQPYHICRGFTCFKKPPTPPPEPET
In the next data set the target is Genome polyprotein (dengue virus type 2, UniProt P29990). Kind of data set: flavivirus cap methylation enzyme inhibition – biochemical, confirmation dose response, primary screen (AID 588689). It counts as functional.
Sequence of Genome polyprotein (P29990 2492-3391 limits assumed): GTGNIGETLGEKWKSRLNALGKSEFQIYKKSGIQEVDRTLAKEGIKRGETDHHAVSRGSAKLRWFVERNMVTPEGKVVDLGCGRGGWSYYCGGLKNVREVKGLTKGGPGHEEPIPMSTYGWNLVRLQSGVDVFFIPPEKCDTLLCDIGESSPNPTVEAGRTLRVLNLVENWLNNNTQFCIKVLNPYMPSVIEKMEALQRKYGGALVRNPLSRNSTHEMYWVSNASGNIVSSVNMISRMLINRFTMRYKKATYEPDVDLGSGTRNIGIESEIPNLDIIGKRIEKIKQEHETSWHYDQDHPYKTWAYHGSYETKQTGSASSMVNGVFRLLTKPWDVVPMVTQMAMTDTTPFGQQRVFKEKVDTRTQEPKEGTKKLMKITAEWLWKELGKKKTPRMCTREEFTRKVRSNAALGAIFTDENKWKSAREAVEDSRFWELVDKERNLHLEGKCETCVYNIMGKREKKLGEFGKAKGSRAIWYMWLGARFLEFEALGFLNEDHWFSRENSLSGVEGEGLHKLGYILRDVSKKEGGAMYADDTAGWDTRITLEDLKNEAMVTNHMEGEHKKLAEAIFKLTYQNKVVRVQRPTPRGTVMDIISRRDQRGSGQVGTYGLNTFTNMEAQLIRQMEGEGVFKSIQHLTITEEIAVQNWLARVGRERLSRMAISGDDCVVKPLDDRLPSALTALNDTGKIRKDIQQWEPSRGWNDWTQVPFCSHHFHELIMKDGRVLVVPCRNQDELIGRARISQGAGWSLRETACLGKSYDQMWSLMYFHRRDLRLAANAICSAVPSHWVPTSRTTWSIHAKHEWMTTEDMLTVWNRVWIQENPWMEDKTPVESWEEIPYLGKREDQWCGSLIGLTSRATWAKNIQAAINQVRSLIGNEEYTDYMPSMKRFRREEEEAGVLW
For data set [10], the target named is T4, Corticotropin-releasing factor receptor 2/Corticotropin-releasing factor-binding protein (Homo sapiens, UniProt P24387+Q13324).
T4 sequence (Q13324 whole entry): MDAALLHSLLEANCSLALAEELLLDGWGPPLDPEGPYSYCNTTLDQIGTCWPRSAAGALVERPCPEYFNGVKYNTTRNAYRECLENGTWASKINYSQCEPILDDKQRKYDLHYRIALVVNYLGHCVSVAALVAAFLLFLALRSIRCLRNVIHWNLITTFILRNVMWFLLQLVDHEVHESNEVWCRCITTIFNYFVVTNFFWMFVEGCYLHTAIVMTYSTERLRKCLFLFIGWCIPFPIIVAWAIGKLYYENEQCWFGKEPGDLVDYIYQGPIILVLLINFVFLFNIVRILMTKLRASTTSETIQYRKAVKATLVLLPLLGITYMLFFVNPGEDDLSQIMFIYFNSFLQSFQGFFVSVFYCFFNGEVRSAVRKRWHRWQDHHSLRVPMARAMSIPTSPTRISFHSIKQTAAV
T4 sequence (P24387 whole entry): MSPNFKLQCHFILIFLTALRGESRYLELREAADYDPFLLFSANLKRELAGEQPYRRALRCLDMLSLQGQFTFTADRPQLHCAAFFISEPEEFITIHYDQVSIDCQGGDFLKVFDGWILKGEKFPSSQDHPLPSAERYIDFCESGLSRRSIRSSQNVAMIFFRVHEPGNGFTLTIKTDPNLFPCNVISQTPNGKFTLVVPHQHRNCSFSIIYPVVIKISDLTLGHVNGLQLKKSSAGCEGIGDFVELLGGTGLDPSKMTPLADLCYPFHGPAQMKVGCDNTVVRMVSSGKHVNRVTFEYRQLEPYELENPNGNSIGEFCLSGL
Kind of data set: activators of CRF receptor 2 with binding protein – uHTS hits, confirmation (AID 602473). In kind it is functional. Particulars: read-out: EC50_Mean.

A further data set has as its target Cytochrome P450 2C9 (Homo sapiens, UniProt P11712).
The target in a further data set is Cytochrome P450 2C19 (Homo sapiens, UniProt P33261). Briefly: Cytochrome panel assay with activity outcomes. Panel member name: p450-cyp2c19 Compounds with AC50 equal or less than 10 uM are considered active. In kind it is functional.
Sequence of Cytochrome P450 2C19 (P33261 whole entry): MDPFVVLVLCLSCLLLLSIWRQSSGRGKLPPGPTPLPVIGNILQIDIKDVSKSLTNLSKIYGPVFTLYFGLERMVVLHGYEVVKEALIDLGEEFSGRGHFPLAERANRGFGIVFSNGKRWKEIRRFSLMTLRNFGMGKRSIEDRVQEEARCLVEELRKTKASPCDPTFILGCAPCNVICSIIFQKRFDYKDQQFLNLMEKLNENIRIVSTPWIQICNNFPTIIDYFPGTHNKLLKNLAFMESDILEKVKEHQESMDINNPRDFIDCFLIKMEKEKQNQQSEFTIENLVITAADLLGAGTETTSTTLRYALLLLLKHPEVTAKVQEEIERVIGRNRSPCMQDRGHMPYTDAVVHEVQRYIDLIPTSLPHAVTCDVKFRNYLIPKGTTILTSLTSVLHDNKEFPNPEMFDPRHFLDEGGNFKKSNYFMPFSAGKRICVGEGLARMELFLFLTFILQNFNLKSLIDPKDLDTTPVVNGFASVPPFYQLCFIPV
Another data set concerns the target Cytochrome P450 3A4 (Homo sapiens, UniProt P08684).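 Further: CYP3A4 tested as one member of a cytochrome P450 panel screen.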
Data set [11] has as its target T5, Heat shock factor protein 1 (Mus musculus, UniProt P38532).
T5 sequence (P38532 whole entry): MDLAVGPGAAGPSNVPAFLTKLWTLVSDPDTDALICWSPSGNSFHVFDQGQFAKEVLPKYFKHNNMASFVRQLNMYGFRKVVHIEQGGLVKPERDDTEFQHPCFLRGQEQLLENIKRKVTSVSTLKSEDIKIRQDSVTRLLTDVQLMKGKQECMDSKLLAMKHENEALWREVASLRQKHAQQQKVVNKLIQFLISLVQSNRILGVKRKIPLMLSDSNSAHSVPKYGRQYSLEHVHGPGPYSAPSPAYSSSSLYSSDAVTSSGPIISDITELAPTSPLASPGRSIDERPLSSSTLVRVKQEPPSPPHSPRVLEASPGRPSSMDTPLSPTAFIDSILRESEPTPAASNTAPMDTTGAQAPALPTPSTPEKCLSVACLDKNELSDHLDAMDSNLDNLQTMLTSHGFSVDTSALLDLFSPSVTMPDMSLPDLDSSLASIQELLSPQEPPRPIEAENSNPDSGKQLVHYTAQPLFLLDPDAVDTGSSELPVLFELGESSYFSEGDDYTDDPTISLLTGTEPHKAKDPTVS
Kind of data set: enhancement of HSF1-driven luciferase signal – cell-based, NIH3T3, luminescence, dose retest, confirmation (AID 435004).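 Further: stress induced by proteasome inhibitor MG132 added 30 min after compound; luciferase reporter driven by HSF1 response element in NIH3T3 cells; actives raise luminescence as potentiators of the MG132 stress response.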 It counts as functional.

Data set [12] concerns the target FAD-linked sulfhydryl oxidase ALR (Homo sapiens, UniProt P55789). Kind of data set: ALR-catalysed DTT oxidation blockers – biochemical, H2O2 detection, luminescence, cherry-pick, dose response (AID 493248).

The source made the active and inactive calls.

Sequence of Cytochrome P450 2C9 (P11712 whole entry): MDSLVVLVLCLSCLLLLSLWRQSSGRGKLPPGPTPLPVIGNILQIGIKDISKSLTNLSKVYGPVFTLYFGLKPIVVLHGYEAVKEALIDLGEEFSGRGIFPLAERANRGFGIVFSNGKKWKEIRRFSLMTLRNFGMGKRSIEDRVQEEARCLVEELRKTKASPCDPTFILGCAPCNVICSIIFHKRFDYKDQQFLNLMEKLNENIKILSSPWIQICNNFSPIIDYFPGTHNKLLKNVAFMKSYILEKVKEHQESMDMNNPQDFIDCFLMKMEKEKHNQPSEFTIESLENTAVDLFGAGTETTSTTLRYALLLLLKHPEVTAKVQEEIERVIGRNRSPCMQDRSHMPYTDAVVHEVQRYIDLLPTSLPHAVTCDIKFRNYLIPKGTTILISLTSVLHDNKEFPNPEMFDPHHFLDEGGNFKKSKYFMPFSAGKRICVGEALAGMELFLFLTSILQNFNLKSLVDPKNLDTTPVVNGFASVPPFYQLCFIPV
Sequence of Cytochrome P450 3A4 (P08684 whole entry): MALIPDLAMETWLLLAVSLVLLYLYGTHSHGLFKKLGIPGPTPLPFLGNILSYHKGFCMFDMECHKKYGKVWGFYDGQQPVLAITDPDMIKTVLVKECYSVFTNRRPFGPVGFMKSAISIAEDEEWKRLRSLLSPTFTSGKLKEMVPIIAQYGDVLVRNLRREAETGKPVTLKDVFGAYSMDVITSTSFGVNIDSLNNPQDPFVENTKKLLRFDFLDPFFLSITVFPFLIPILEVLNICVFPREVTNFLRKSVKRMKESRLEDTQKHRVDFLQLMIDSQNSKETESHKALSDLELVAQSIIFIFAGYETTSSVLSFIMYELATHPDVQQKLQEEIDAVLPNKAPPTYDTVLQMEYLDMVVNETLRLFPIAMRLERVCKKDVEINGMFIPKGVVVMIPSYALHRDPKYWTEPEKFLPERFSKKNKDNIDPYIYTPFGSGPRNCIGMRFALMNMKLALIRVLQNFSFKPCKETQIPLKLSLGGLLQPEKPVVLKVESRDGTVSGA
Sequence of Nonstructural protein 1 (Q194T2 whole entry): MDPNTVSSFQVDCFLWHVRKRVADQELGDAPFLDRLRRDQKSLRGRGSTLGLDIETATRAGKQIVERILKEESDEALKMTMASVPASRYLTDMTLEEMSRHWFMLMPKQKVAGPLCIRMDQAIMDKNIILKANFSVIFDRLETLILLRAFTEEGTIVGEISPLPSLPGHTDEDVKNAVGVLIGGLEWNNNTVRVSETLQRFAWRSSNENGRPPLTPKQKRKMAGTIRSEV
Sequence of FAD-linked sulfhydryl oxidase ALR (P55789 whole entry): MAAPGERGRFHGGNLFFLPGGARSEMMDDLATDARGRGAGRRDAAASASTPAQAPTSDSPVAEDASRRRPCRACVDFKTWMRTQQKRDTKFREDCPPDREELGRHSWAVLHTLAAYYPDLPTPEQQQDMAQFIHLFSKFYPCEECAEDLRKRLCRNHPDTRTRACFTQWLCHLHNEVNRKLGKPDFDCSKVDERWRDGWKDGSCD

`Cc1ccnc(NC(c2cccnc2)c2ccc3cccnc3c2O)c1` (configuration not stated): the EC50 in [1] is 46.7 µM (active); in the data set “cells [2]”, 200 µM (active); in data set [3], > 38 µM (not active); in “cells [4]”, > 350 µM (not active). In addition, the IC50 – broadly, the concentration that inhibits the measured activity by half – on Nonstructural protein 1 is 8.52 µM (active).

As to `Cc1cc(/C=C(\C#N)C(=O)Nc2ccccc2)c(C)n1-c1ccc(C(=O)O)cc1`, the EC50 in data set [5] and in [6] was > 300 µM (not active) throughout.

On to `CCn1c(-c2ccco2)nc2ccccc21`, for which, in “cells [7]”, the IC50 was > 50 µM (active).

With `CCn1nc(C)c(/C=C2\CCCC3=C2OC(N)=C(C#N)C3c2c(C)nn(CC)c2C)c1C` (configuration not stated), the values for the EC50 in data set [5] and in [6] were 36 µM (active) and 51.8 µM (active), respectively.

In the case of `COC(=O)[C@@]12CCCN1[C@H](c1ccc(-c3ccc(OC)cc3)cc1)[C@@H]1C(=O)N(C)C(=O)[C@@H]12`, the AC50 (in general, the concentration giving half of the maximal activity seen) in data set [8] is 38.9 µM (active).

`CN=C(S)Nc1ccc(Nc2ccccc2)cc1`: the results for the IC50 (in data set [9]; at Large T antigen) were 64.6 µM (active) and 12.3 µM (active), respectively.

Take `CCOc1ccc(C(c2c(O)n(C)c(SC)nc2=O)c2c(O)n(C)c(SC)nc2=O)cc1`: the IC50 on Genome polyprotein is 43 µM (active).

As to `CCOC(=O)c1cc(-c2ccc(N)cc2)sc1N`, the IC50 on Large T antigen is 9.87 µM (active).

On to `N=C1/C(=C\c2ccc(O)cc2)C(=O)N=C2SC(CC(=O)N3CCCCC3)=NN12`, for which the IC50 on Large T antigen was 14.2 µM (active).

With `CSc1nc(O)c(C(c2ccc(O)cc2)c2c(O)nc(SC)nc2O)c(O)n1`, the IC50 on Genome polyprotein was 46.7 µM (active).

`CCOc1ccc(-c2nn(-c3ccccc3)cc2/C=C2\SC(=S)N(C3CCS(=O)(=O)C3)C2=O)cc1` (configuration not stated): the EC50 is 13.1 µM (active) in data set [10], > 300 µM (not active) in [5] and > 300 µM (not active) in [6].

In the case of `O=C(CN1CCCCC1)Nc1nnc(-c2ccc([N+](=O)[O-])cc2)s1`, the IC50 in the data set “cells [7]” is 29.9 µM (active). The AC50 on Cytochrome P450 2C9 is 17.8 µM (inconclusive); at Cytochrome P450 2C19, “inconclusive”.

In the case of `COc1ccc(C2(O)CCN(CCCCOc3ccccc3)CC2)cc1`, the IC50 in the data set “cells [7]” was 32.8 µM (active).

For the molecule `O=C(COC(=O)COc1ccc(Nc2ccccc2)cc1)NCc1ccco1`, the IC50 in data set [9] is 77.4 µM (active); in the data set “cells [7]”, 4.72 µM (active).

On to `Cc1ccccc1NC(=O)/C(C#N)=C/c1ccc(-c2ccc(Cl)c(C(=O)O)c2)o1`, for which the EC50 in data set [5] and in data set [6] was > 300 µM (not active) throughout.

For the molecule `COc1cc(C2C(C#N)=C(N)OC3=C2C(=O)CCC3)cc(OC)c1OC(=O)N1CCOCC1` (configuration not stated), the AC50 on Cytochrome P450 2C9 is 22.4 µM (inconclusive); at Cytochrome P450 3A4, 25.1 µM (inconclusive). The EC50 in data set [5] and in data set [6] was > 300 µM (not active) throughout.

For `CCc1ccc(NC(=O)N(CCN2CCOCC2)Cc2ccc3c(c2)CCCN3CC)cc1`, the IC50 on Nonstructural protein 1 is 40.6 µM (active).

Turning to `C=CCn1c(=S)[nH]c2nc3c(cc2c1=O)COC(C)(C)C3`, the EC50 in data set [5] and in data set [6] was > 300 µM (not active) each time.

For `Cc1c(C)n(Cc2ccccc2)c2ncnc(NN)c12`, on Large T antigen, the IC50 was > 100 µM (active).

As for `O=C(COc1ccc(Cl)cc1)Nc1ccc(Cl)cn1`, the IC50 in the data set “cells [7]” was 30.3 µM (active).

Consider `CCOC(=O)C(C)Oc1cc(Cl)c(C=O)cc1OC` (configuration not stated), for which the IC50 in “cells [7]” is 24.4 µM (active). Moreover, the EC50 in data set [11] was > 260 µM (inactive).

On to `Cc1[nH]n(-c2ccccc2)c(=O)c1N=Nc1ccccc1C(=O)O`, for which, on Genome polyprotein, the IC50 was 58 µM (active).

As to `C/C(=N\NC(=O)c1ccc([N+](=O)[O-])c(C)c1)c1ccccc1Cl`, the IC50 in “cells [7]” was 42.2 µM (active).

In the case of `CSc1nncc(/C(C)=N\Nc2ccccc2)n1`, the AC50 at Cytochrome P450 3A4 is 2.51 µM (inconclusive). For the same molecule, the figures for the EC50 in data set [5] and in [6] were 41.3 µM (active) and > 300 µM (not active), respectively.

Regarding `COc1cc(/C=N\NC(=O)CC(=O)NCCc2ccccc2)ccc1O`, the IC50 in data set [9] is 27.4 µM (active); on Large T antigen, 7.57 µM (active). For the same molecule, the AC50 in [12] was 1.7 µM (active).
